What follows are compounds tested against T1, ΔF508-CFTR (Homo sapiens, UniProt P13569, DEL508-508) (assay: Membrane potential optical (FRET/VIPR) assay, identification of correction compounds). Details: Table 3; assay not given.
T1 construct: expressed in transfected cells
T1 sequence (P13569 with tags, fused parts or gaps DEL508-508): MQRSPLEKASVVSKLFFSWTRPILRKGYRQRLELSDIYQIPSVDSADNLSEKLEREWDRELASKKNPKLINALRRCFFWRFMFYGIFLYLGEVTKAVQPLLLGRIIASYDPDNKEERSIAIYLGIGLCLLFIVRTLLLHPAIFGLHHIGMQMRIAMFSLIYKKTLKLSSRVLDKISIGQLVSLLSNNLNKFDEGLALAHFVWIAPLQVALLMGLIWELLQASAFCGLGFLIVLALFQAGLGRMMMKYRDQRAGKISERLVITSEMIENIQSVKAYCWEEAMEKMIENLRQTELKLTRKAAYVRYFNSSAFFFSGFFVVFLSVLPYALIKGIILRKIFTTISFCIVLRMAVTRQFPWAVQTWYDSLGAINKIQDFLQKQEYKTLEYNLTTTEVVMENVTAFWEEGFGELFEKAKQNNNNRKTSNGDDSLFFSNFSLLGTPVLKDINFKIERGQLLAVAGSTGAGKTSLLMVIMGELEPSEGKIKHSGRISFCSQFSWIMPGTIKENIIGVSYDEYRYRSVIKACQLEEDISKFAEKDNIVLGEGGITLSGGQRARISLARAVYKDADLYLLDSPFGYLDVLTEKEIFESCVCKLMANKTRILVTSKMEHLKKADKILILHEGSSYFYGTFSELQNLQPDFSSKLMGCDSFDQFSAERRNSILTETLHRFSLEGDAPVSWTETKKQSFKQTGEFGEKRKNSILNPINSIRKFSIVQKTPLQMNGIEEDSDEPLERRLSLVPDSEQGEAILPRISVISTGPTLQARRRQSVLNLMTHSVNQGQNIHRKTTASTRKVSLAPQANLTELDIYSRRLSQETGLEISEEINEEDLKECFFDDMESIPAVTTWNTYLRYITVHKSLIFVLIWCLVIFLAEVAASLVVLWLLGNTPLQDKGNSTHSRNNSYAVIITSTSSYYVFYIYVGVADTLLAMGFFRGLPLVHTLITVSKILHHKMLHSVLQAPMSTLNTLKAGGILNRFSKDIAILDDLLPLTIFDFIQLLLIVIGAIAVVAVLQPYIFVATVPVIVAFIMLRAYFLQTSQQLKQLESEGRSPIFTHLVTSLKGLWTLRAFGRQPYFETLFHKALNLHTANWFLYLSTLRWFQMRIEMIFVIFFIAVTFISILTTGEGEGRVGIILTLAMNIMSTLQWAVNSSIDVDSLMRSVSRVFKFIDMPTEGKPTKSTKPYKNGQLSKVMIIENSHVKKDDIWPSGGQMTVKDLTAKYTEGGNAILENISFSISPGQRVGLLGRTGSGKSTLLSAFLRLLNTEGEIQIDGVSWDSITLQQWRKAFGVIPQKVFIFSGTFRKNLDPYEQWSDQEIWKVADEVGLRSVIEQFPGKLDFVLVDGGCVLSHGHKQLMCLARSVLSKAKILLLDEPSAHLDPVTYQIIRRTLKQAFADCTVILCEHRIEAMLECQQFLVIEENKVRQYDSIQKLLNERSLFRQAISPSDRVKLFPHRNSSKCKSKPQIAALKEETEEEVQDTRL
Type: cell-based
Text: I) Membrane Potential Optical Methods for Assaying ΔF508-CFTR Modulation Properties of Compounds
These voltage sensitive assays are based on the change in fluorescence resonant energy transfer (FRET) between the membrane-soluble, voltage-sensitive dye, DiSBAC2(3), and a fluorescent phospholipid, CC2-DMPE, which is attached to the outer leaflet of the plasma membrane and acts as a FRET donor. Changes in membrane potential (Vm) cause the negatively charged DiSBAC2(3) to redistribute across the plasma membrane and the amount of energy transfer from CC2-DMPE changes accordingly. The changes in fluorescence emission were monitored using VIPR™ II, which is an integrated liquid handler and fluorescent detector designed to conduct cell-based screens in 96- or 384-well microtiter plates.
Identification of Correction Compounds
To identify small molecules that correct the trafficking defect associated with ΔF508-CFTR; a single-addition HTS assay format was developed. The cells were incubated in serum-free medium for 16 hrs at 37° C. in the presence or absence (negative control) of test compound. As a positive control, cells plated in 384-well plates were incubated for 16 hrs at 27° C. to “temperature-correct” ΔF508-CFTR. The cells were subsequently rinsed 3× with Krebs Ringers solution and loaded with the voltage-sensitive dyes. To activate ΔF508-CFTR, 10 μM forskolin and the CFTR potentiator, genistein (20 μM), were added along with Cl^− free medium to each well. The addition of Cl^− free medium promoted Cl^− efflux in response to ΔF508-CFTR activation and the resulting membrane depolarization was optically monitored using the FRET-based voltage-sensor dyes.
• Bath Solution #1: (in mM) NaCl 160, KCl 4.5, CaCl2 2, MgCl2 1, HEPES 10, pH 7.4 with NaOH. • Chloride-free bath solution: Chloride salts in Bath Solution #1 are substituted with gluconate salts. • CC2-DMPE: Prepared as a 10 mM stock solution in DMSO and stored at −20° C. • DiSBAC2(3): Prepared as a 10 mM stock in DMSO and stored at −20° C.
NIH3T3 mouse fibroblasts stably expressing ΔF508-CFTR are used for optical measurements of membrane potential. The cells are maintained at 37° C. in 5% CO2 and 90% humidity in Dulbecco's modified Eagle's medium supplemented with 2 mM glutamine, 10% fetal bovine serum, 1×NEAA, β-ME, 1×pen/strep, and 25 mM HEPES in 175 cm^2 culture flasks. For all optical assays, the cells were seeded at 30,000/well in 384-well matrigel-coated plates and cultured for 2 hrs at 37° C. before culturing at 27° C. for 24 hrs. for the potentiator assay.
O=C(Nc1ncc(Sc2ccc(Cl)cc2)s1)C1(c2ccc3c(c2)OCO3)CC1 [Example 103] was tested, and the “% Activity / % Efficacy (relative efficacy)” value was “++ (“++” means between 25% to 100%)” and the EC50 was 25 to 60 µM. For COc1ccc(C2(C(=O)Nc3ncc(Sc4ccccc4C(=O)O)s3)CC2)cc1 [Example 104], the “% Activity / % Efficacy (relative efficacy)” value was “+++ (“+++” means>100%)” and the EC50 was less than 10 µM. With O=C(Nc1ncc(Sc2ccccc2)s1)C1(c2ccc3c(c2)OCO3)CC1 [Example 105] the “% Activity / % Efficacy (relative efficacy)” value was “+++ (“+++” means>100%)” and the EC50 was less than 10 µM. With O=C(O)c1cccc(Sc2cnc(NC(=O)C3(c4ccc5c(c4)OCO5)CC3)s2)c1 [Example 106] the “% Activity / % Efficacy (relative efficacy)” value was “+++ (“+++” means>100%)” and the EC50 was less than 10 µM. CC(=O)c1sc(NC(=O)C2(c3ccc4c(c3)OCO4)CC2)nc1C [Example 107] was tested, and the “% Activity / % Efficacy (relative efficacy)” value was “+++ (“+++” means>100%)” and the EC50 was less than 10 µM. With CCCc1nc(NC(=O)C2(c3ccc4c(c3)OCO4)CC2)sc1C(=O)OCC [Example 108] the EC50 was less than 10 µM. For CCOC(=O)c1sc(NC(=O)C2(c3ccc4c(c3)OCO4)CC2)nc1C(C)C [Example 109], the “% Activity / % Efficacy (relative efficacy)” value was “+++ (“+++” means>100%)” and the EC50 was less than 10 µM. In the case of O=C(Nc1nc2c(s1)-c1ccccc1CC2)C1(c2ccc3c(c2)OCO3)CC1 [Example 110], the “% Activity / % Efficacy (relative efficacy)” value is reported as “+++ (“+++” means>100%)” and the EC50 is reported as less than 10 µM. O=C(Nc1ncc(C2(c3ccccc3)CCCC2)s1)C1(c2ccc3c(c2)OCO3)CC1 [Example 111] was tested, and the “% Activity / % Efficacy (relative efficacy)” value was “+++ (“+++” means>100%)” and the EC50 was less than 10 µM. For COc1ccccc1-c1csc(NC(=O)C2(c3ccc4c(c3)OCO4)CC2)n1 [Example 112], the “% Activity / % Efficacy (relative efficacy)” value was “+ (“+” means<25%)” and the EC50 was 10 to 25 µM. In the case of COc1ccc(OC)c(-c2csc(NC(=O)C3(c4ccc5c(c4)OCO5)CC3)n2)c1 [Example 113], the “% Activity / % Efficacy (relative efficacy)” value is reported as “+++ (“+++” means>100%)” and the EC50 is reported as less than 10 µM. With COc1cccc(-c2csc(NC(=O)C3(c4ccc5c(c4)OCO5)CC3)n2)c1 [Example 114] the “% Activity / % Efficacy (relative efficacy)” value was “+++ (“+++” means>100%)” and the EC50 was less than 10 µM. For O=C(Nc1nc(-c2ccc(Cl)c(Cl)c2)cs1)C1(c2ccc3c(c2)OCO3)CC1 [Example 117], the EC50 was 10 to 25 µM. With CS(=O)(=O)c1ccc(-c2csc(NC(=O)C3(c4ccc5c(c4)OCO5)CC3)n2)cc1 [Example 119] the “% Activity / % Efficacy (relative efficacy)” value was “++ (“++” means between 25% to 100%)” and the EC50 was less than 10 µM. With CCN(CC)c1ccc(-c2csc(NC(=O)C3(c4ccc5c(c4)OCO5)CC3)n2)cc1 [Example 120] the “% Activity / % Efficacy (relative efficacy)” value was “+++ (“+++” means>100%)” and the EC50 was less than 10 µM. COc1ccc(C2(C(=O)Nc3nc(-c4ccccc4OC)cs3)CC2)cc1 [Example 121] was tested, and the EC50 was less than 10 µM. COc1ccc(C2(C(=O)Nc3nc(-c4cccc(OC)c4)cs3)CC2)cc1 [Example 122] was tested, and the “% Activity / % Efficacy (relative efficacy)” value was “+++ (“+++” means>100%)” and the EC50 was less than 10 µM. For COc1ccc(C2(C(=O)Nc3nc(-c4cccc(Cl)c4)cs3)CC2)cc1 [Example 123], the “% Activity / % Efficacy (relative efficacy)” value was “+++ (“+++” means>100%)” and the EC50 was less than 10 µM. COc1ccc(C2(C(=O)Nc3nc(-c4ccc(Cl)c(Cl)c4)cs3)CC2)cc1 [Example 124] was tested, and the “% Activity / % Efficacy (relative efficacy)” value was “++ (“++” means between 25% to 100%)” and the EC50 was 25 to 60 µM. With COc1ccc(C2(C(=O)Nc3nc(-c4ccc(S(C)(=O)=O)cc4)cs3)CC2)cc1 [Example 125] the “% Activity / % Efficacy (relative efficacy)” value was “+++ (“+++” means>100%)” and the EC50 was less than 10 µM. In the case of O=C(Nc1nc(-c2ccc(Cl)cc2Cl)cs1)C1(c2ccc3c(c2)OCO3)CC1 [Example 126], the “% Activity / % Efficacy (relative efficacy)” value is reported as “+++ (“+++” means>100%)” and the EC50 is reported as less than 10 µM. In the case of Cc1ccc(-c2csc(NC(=O)C3(c4ccc5c(c4)OCO5)CC3)n2)c(C)c1 [Example 127], the “% Activity / % Efficacy (relative efficacy)” value is reported as “+++ (“+++” means>100%)” and the EC50 is reported as less than 10 µM. Work on O=C(Nc1ncc(C(SCCCCO)c2ccccc2Cl)s1)C1(c2ccc3c(c2)OCO3)CC1 (stereo not drawn) [Example 131] yielded an EC50 of less than 10 µM. For O=C(c1cnc(NC(=O)C2(c3ccc4c(c3)OCO4)CC2)s1)c1ccccc1Cl [Example 136], the “% Activity / % Efficacy (relative efficacy)” value was “+++ (“+++” means>100%)” and the EC50 was less than 10 µM. In the case of COc1ccc(C2(C(=O)Nc3ncc(Cc4cccc(Cl)c4)o3)CC2)cc1 [Example 153], the “% Activity / % Efficacy (relative efficacy)” value is reported as “++ (“++” means between 25% to 100%)” and the EC50 is reported as less than 10 µM. COc1ccc(C2(C(=O)Nc3ncc(Cc4ccccc4OC)o3)CC2)cc1 [Example 156] showed an EC50 of less than 10 µM. With O=C(Nc1ncc(Cc2cccc(F)c2Cl)s1)C1(c2ccc3c(c2)OCO3)CC1 [Example 159] the “% Activity / % Efficacy (relative efficacy)” value was “+++ (“+++” means>100%)” and the EC50 was less than 10 µM. With O=C(Nc1ncc(Cc2cccc(Cl)c2)o1)C1(c2ccc3c(c2)OCO3)CC1 [Example 166] the “% Activity / % Efficacy (relative efficacy)” value was “+++ (“+++” means>100%)” and the EC50 was less than 10 µM. In the case of COc1ccccc1Cc1cnc(NC(=O)C2(c3ccc4c(c3)OCO4)CC2)o1 [Example 169], the “% Activity / % Efficacy (relative efficacy)” value is reported as “++ (“++” means between 25% to 100%)” and the EC50 is reported as less than 10 µM. In the case of COc1ccccc1Cc1cnc(NC(=O)C2(c3ccc(SC)cc3)CC2)s1 [Example 173], the “% Activity / % Efficacy (relative efficacy)” value is reported as “+++ (“+++” means>100%)” and the EC50 is reported as less than 10 µM. For O=C(Nc1ncc(Cc2ccccc2Cl)s1)C1(c2ccc(OC(F)(F)F)cc2)CC1 [Example 174], the “% Activity / % Efficacy (relative efficacy)” value was “+++ (“+++” means>100%)” and the EC50 was less than 10 µM. In the case of CSc1ccc(C2(C(=O)Nc3ncc(Cc4ccccc4Cl)s3)CC2)cc1 [Example 175], the “% Activity / % Efficacy (relative efficacy)” value is reported as “+++ (“+++” means>100%)” and the EC50 is reported as less than 10 µM. In the case of COc1ccc(C2(C(=O)Nc3ncc(Cc4cccnc4OC)s3)CC2)cc1 [Example 176], the “% Activity / % Efficacy (relative efficacy)” value is reported as “+++ (“+++” means>100%)” and the EC50 is reported as less than 10 µM. With COc1ccc(C2(C(=O)Nc3ncc(Cc4cc(F)ccc4OC)s3)CC2)cc1 [Example 179] the “% Activity / % Efficacy (relative efficacy)” value was “+++ (“+++” means>100%)” and the EC50 was less than 10 µM. In the case of COc1ccc(Cc2cnc(NC(=O)C3(c4ccc(OC)cc4)CC3)s2)cc1 [Example 180], the “% Activity / % Efficacy (relative efficacy)” value is reported as “+++ (“+++” means>100%)” and the EC50 is reported as less than 10 µM. In the case of COc1cccc(Cc2cnc(NC(=O)C3(c4ccc5c(c4)OCO5)CC3)s2)c1 [Example 181], the “% Activity / % Efficacy (relative efficacy)” value is reported as “+++ (“+++” means>100%)” and the EC50 is reported as less than 10 µM. For COc1ccc(F)cc1Cc1cnc(NC(=O)C2(c3ccc4c(c3)OCO4)CC2)s1 [Example 182], the “% Activity / % Efficacy (relative efficacy)” value was “+++ (“+++” means>100%)” and the EC50 was less than 10 µM. In the case of COc1ccc(Cc2cnc(NC(=O)C3(c4ccc5c(c4)OCO5)CC3)s2)cc1 [Example 183], the “% Activity / % Efficacy (relative efficacy)” value is reported as “+++ (“+++” means>100%)” and the EC50 is reported as less than 10 µM. CCCc1nc(NC(=O)C2(c3ccc(OC)cc3)CC2)sc1C(=O)OCC [Example 184] was tested, and the “% Activity / % Efficacy (relative efficacy)” value was “+++ (“+++” means>100%)” and the EC50 was less than 10 µM. For CN(C)CCNC(c1cnc(NC(=O)C2(c3ccc4c(c3)OCO4)CC2)s1)c1ccccc1Cl (stereo not drawn) [Example 187], the “% Activity / % Efficacy (relative efficacy)” value was “+++ (“+++” means>100%)” and the EC50 was less than 10 µM. O=C(Nc1ncc(C(NCCN2CCOCC2)c2ccccc2Cl)s1)C1(c2ccc3c(c2)OCO3)CC1 (stereo not drawn) [Example 188] was tested, and the “% Activity / % Efficacy (relative efficacy)” value was “++ (“++” means between 25% to 100%)” and the EC50 was less than 10 µM. In the case of O=C1CCCc2nc(NC(=O)C3(c4ccc5c(c4)OCO5)CC3)sc21 [Example 190], the “% Activity / % Efficacy (relative efficacy)” value is reported as “+ (“+” means<25%)” and the EC50 is reported as 10 to 25 µM. For CCCc1nc(NC(=O)C2(c3ccc4c(c3)OCO4)CC2)sc1C(=O)O [Example 191], the “% Activity / % Efficacy (relative efficacy)” value was “++ (“++” means between 25% to 100%)” and the EC50 was less than 10 µM. For CCCc1nc(NC(=O)C2(c3ccc4c(c3)OCO4)CC2)sc1C(=O)NCC [Example 192], the “% Activity / % Efficacy (relative efficacy)” value was “+++ (“+++” means>100%)” and the EC50 was less than 10 µM. In the case of COc1ccc(C2(C(=O)Nc3ncc(Cc4c(F)cccc4OC)s3)CC2)cc1 [Example 193], the “% Activity / % Efficacy (relative efficacy)” value is reported as “+++ (“+++” means>100%)” and the EC50 is reported as less than 10 µM. With COc1ccc(C2(C(=O)Nc3ncc(CCc4ccccc4OC)s3)CC2)cc1 [Example 194] the “% Activity / % Efficacy (relative efficacy)” value was “++ (“++” means between 25% to 100%)” and the EC50 was less than 10 µM. For CCOC(=O)c1nc(NC(=O)C2(c3ccc(OC)cc3)CC2)sc1Cc1ccccc1OC [Example 195], the “% Activity / % Efficacy (relative efficacy)” value was “+++ (“+++” means>100%)” and the EC50 was less than 10 µM.

Same assay, conditions: Table 3; assay not given; read-out: % Activity / % Efficacy (relative efficacy)
CCCc1nc(NC(=O)C2(c3ccc4c(c3)OCO4)CC2)sc1C(=O)OCC [Example 108] was tested, and the Emax was greater than 100%. O=C(Nc1nc(-c2ccc(Cl)c(Cl)c2)cs1)C1(c2ccc3c(c2)OCO3)CC1 [Example 117] showed an Emax of 25 to 100%. COc1ccc(C2(C(=O)Nc3nc(-c4ccccc4OC)cs3)CC2)cc1 [Example 121] showed an Emax greater than 100%. With COc1ccc(C2(C(=O)Nc3ncc(Cc4ccccc4OC)o3)CC2)cc1 [Example 156] the Emax was greater than 100%.

Reference: patent US7977322B2 (Vertex Pharmaceuticals Incorporated, priority 2004, dated 2011)
